Source: patent US11530207B2, “Compounds for the treatment of cancer” (SKYHAWK THERAPEUTICS, INC., priority 2018, dated 2022)

System: A673 cells
Assay: Dose-response cell proliferation assay in A673 cells (crystal violet)
Assay type: cell-based
Conditions: Homo sapiens, A673 cells, 10,000 cells per well, 72 h treatment
Experimental: Small molecule splicing modulators were tested in a dose-response assay using A673 cells. A673 cells were first plated in 96-well plastic tissue culture plates (10,000 cells per well). The cells were treated with vehicle alone (DMSO), or increasing concentrations of SMSM compounds for 72 h. Following treatment, cell proliferation was determined using a crystal violet assay. The relative cell proliferation at each concentration was determined.

Structure (SMILES): CNC(=O)/C=C/c1cc(O)c(-c2ccc(N3C[C@H]4CNC[C@H]4C3)nn2)cc1F [SMSM 1, (E)-3-(2-fluoro-4-(6-((3aR,6aS)-hexahydropyrrolo[3,4-c]pyrrol-2(1H)-yl)pyridazin-3-yl)-5-hydroxyphenyl)-N-methylacrylamide]
- IC50: 91 nM

Structure (SMILES): CNC(=O)/C=C/c1ccc(-c2ccc(N3C[C@H]4CNC[C@H]4C3)nn2)c(O)c1 [SMSM 2, (E)-3-(4-(6-((3aR,6aS)-hexahydropyrrolo[3,4-c]pyrrol-2(1H)-yl)pyridazin-3-yl)-3-hydroxyphenyl)-N-methylacrylamide]
- IC50: 9 nM

Structure (SMILES): CNC(=O)/C=C/c1ccc(-c2ccc(N(C)[C@@H]3C[C@H]4CC[C@@H](C3)N4)nn2)c(O)c1 [SMSM 3, (E)-3-(4-(6-(((1R,3s,5S)-8-azabicyclo[3.2.1]octan-3-yl)(methyl)amino)pyridazin-3-yl)-3-hydroxyphenyl)-N-methylacrylamide]
- IC50: 8.3 nM

Structure (SMILES): CNC(=O)/C=C/c1ccc(-c2ccc(O[C@@H]3C[C@H]4CC[C@@H](C3)N4)nn2)c(O)c1 [SMSM 4, (E)-3-(4-(6-(((1R,3s,5S)-8-azabicyclo[3.2.1]octan-3-yl)oxy)pyridazin-3-yl)-3-hydroxyphenyl)-N-methylacrylamide]
- IC50: 7 nM

Structure (SMILES): CN(C(=O)/C=C/c1ccc(-c2ccc(N(C)[C@@H]3C[C@H]4CCC[C@@H](C3)N4)nn2)c(O)c1)C1CC1 [SMSM 5, (E)-3-(4-(6-(((1R,3s,5S)-9-azabicyclo[3.3.1]nonan-3-yl)(methyl)amino)pyridazin-3-yl)-3-hydroxyphenyl)-N-cyclopropyl-N-methylacrylamide]
- IC50: 554 nM

Structure (SMILES): CNC(=O)/C=C/c1ccc(-c2ccc(N(C)[C@@H]3C[C@H]4CCC[C@@H](C3)N4)nn2)c(O)c1 [SMSM 6, (E)-3-(4-(6-(((1R,3s,5S)-9-azabicyclo[3.3.1]nonan-3-yl)(methyl)amino)pyridazin-3-yl)-3-hydroxyphenyl)-N-methylacrylamide]
- IC50: 3120 nM

Structure (SMILES): CN(C)C(=O)/C=C/c1ccc(-c2ccc(N(C)[C@@H]3C[C@H]4CCC[C@@H](C3)N4)nn2)c(O)c1 [SMSM 7, (E)-3-(4-(6-(((1R,3s,5S)-9-azabicyclo[3.3.1]nonan-3-yl)(methyl)amino)pyridazin-3-yl)-3-hydroxyphenyl)-N,N-dimethylacrylamide]
- IC50: 3.7 nM

Structure (SMILES): CNC(=O)/C=C/c1cc(O)c(-c2ccc(N(C)[C@@H]3C[C@H]4CCC[C@@H](C3)N4)nn2)cc1F [SMSM 8, (E)-3-(4-(6-(((1R,3s,5S)-9-azabicyclo[3.3.1]nonan-3-yl)(methyl)amino)pyridazin-3-yl)-2-fluoro-5-hydroxyphenyl)-N-methylacrylamide]
- IC50: 20 nM

Structure (SMILES): CNC(=O)/C=C/c1cc(O)c(-c2ccc(N(C)[C@H]3C[C@]4(C)CC[C@](C)(C3)N4)nn2)cc1F [SMSM 9]
- IC50: 1950 nM

Structure (SMILES): CNC(=O)/C=C/c1ccc(-c2ccc(N(C)[C@H]3C[C@]4(C)CC[C@](C)(C3)N4)nn2)c(O)c1 [SMSM 10, (E)-3-(4-(6-(((1R,3s,5S)-1,5-dimethyl-8-azabicyclo[3.2.1]octan-3-yl)(methyl)amino)pyridazin-3-yl)-3-hydroxyphenyl)-N-methylacrylamide]
- IC50: 1580 nM

Structure (SMILES): CNC(=O)/C=C/c1cc(O)c(-c2ccc(N(C3CC3)[C@H]3C[C@]4(C)CC[C@](C)(C3)N4)nn2)cc1F [SMSM 11, (E)-3-(4-(6-(cyclopropyl((1R,3s,5 S)-1,5-dimethyl-8-azabicyclo[3.2.1]octan-3-yl)amino)pyridazin-3-yl)-2-fluoro-5-hydroxyphenyl)-N-methylacrylamide]
- IC50: 1390 nM

Structure (SMILES): CN(c1ccc(-c2ccc(/C=C/c3nnn[nH]3)cc2O)nn1)[C@H]1C[C@]2(C)CC[C@](C)(C1)N2 [SMSM 12, 5-((E)-2-(1H-tetrazol-5-yl)vinyl)-2-(6-(((1R,3s,5S)-1,5-dimethyl-8-azabicyclo[3.2.1]octan-3-yl)(methyl)amino)pyridazin-3-yl)phenol]
- IC50: > 1000 nM

Structure (SMILES): CNC(=O)/C=C/c1cc(O)c(-c2ccc(N(C3CC3)[C@H]3C[C@]4(C)CCC[C@](C)(C3)N4)nn2)cc1F [SMSM 13, (E)-3-(4-(6-(cyclopropyl((lR,3s,5 S)-1,5-dimethyl-9-azabicyclo[3.3.1]nonan-3-yl)amino)pyridazin-3-yl)-2-fluoro-5-hydroxyphenyl)-N-methylacrylamide]
- IC50: > 1000 nM

Structure (SMILES): CNC(=O)/C=C/c1ccc(-c2ccc(N(C)[C@H]3C[C@]4(C)CCC[C@](C)(C3)N4)nn2)c(O)c1 [SMSM 14, (E)-3-(4-(6-(((1R,3s,5S)-1,5-dimethyl-9-azabicyclo[3.3.1]nonan-3-yl)(methyl)amino)pyridazin-3-yl)-3-hydroxyphenyl)-N-methylacrylamide]
- IC50: 1.6 nM

Structure (SMILES): CNC(=O)/C=C/c1cc(O)c(-c2ccc(N(C)[C@H]3C[C@]4(C)CCC[C@](C)(C3)N4)nn2)cc1F [SMSM 15, (E)-3-(4-(6-(((1R,3s,5S)-1,5-dimethyl-9-azabicyclo[3.3.1]nonan-3-yl)(methyl)amino)pyridazin-3-yl)-2-fluoro-5-hydroxyphenyl)-N-methylacrylamide]
- IC50: 0.7 nM

Structure (SMILES): CNC(=O)/C=C/c1ccc(-c2ccc(N(C)C3CC(C)(C)NC(C)(C)C3)nn2)c(O)c1 [SMSM 16, (E)-3-(3-hydroxy-4-(6-(methyl(2,2,6,6-tetramethylpiperidin-4-yl)amino)pyridazin-3-yl)phenyl)-N-methylacrylamide]
- IC50: 0.2 nM

Structure (SMILES): CNC(=O)/C=C/c1cc(O)c(-c2ccc(N3CCC(N)CC3)nn2)cc1F [SMSM 17, (E)-3-(4-(6-(4-aminopiperidin-1-yl)pyridazin-3-yl)-2-fluoro-5-hydroxyphenyl)-N-methylacrylamide]
- IC50: 0.3 nM

Structure (SMILES): CNC(=O)/C=C/c1ccc(-c2ccc(N3CCC(N)CC3)nn2)c(O)c1 [SMSM 18, (E)-3-(4-(6-(4-aminopiperidin-1-yl)pyridazin-3-yl)-3-hydroxyphenyl)-N-methylacrylamide]
- IC50: > 1000 nM

Structure (SMILES): CN(C)C(=O)/C=C/c1ccc(-c2ccc(O[C@@H]3C[C@H]4CCC[C@@H](C3)N4)nn2)c(O)c1 [SMSM 19]
- IC50: > 1000 nM

Structure (SMILES): CNC(=O)/C=C/c1ccc(-c2ccc(O[C@@H]3C[C@H]4CCC[C@@H](C3)N4)nn2)c(O)c1 [SMSM 20, (E)-3-(4-(6-(((1R,3s,5S)-9-azabicyclo[3.3.1]nonan-3-yl)ypoxy)pyridazin-3-yl)-3-hydroxyphenyl)-N-methylacrylamide]
- IC50: 793 nM

Structure (SMILES): CNC(=O)/C=C/c1ccc(-c2ccc(O[C@H]3C[C@H]4C[C@@H]3CN4)nn2)c(O)c1 [SMSM 21]
- IC50: 369 nM

Structure (SMILES): CNC(=O)/C=C/c1ccc(-c2ccc(O[C@@H]3C[C@@H]4C[C@H]3CN4)nn2)c(O)c1 [SMSM 22, (E)-3-(4-(6-(((1S,4S,5R)-2-azabicyclo[2.2.1]heptan-5-yl)oxy)pyridazin-3-yl)-3-hydroxyphenyl)-N-methylacrylamide]
- IC50: 330 nM

Structure (SMILES): CNC(=O)/C=C/c1ccc(-c2ccc(S[C@@H]3C[C@H]4CC[C@@H](C3)N4)nn2)c(O)c1 [SMSM 23, (E)-3-(4-(6-(((1R,3s,5S)-8-azabicyclo[3.2.1]octan-3-yl)thio)pyridazin-3-yl)-3-hydroxyphenyl)-N-methylacrylamide]
- IC50: 201 nM
